SMILES	melting point [°C]
Nc1cc(N2CCN(C(c3ccccc3)(c3ccccc3)c3ccccc3)CC2)nc(N)n1	152 to 160
Cc1nc(N2CCCC2)ccc1N1CCCn2c1nc1c(Cl)ccc(C(OC(F)F)C(F)(F)F)c12 (stereo unspecified)	233 to 236
Oc1ccc2c(c1)SCCc1c-2n(CCCCCN2CCCC2)c2ccc(O)cc12	202 to 204
NC(=O)c1ccc(F)c2c1CC(N(CCc1c[nH]c3ccc(F)cc13)CC1CC1)CO2 (stereo unspecified)	132
C=CC(=O)OCCCC#Cc1ccc(C(F)(F)Oc2ccc(OC(F)(F)c3ccc(C#CCCCOC(=O)C=C)cc3)c(C)c2)cc1	51
Cc1nc(O)c(C)c(O)n1	300
Cc1cc2c(cc1C1=NNC(=O)CC1)OCC(=O)N2C	211 to 213
Nc1c(F)c(N2CC3NCCOC3C2)c(F)c2c1c(=O)c(C(=O)O)cn2C1CC1F (stereo unspecified)	292 to 294
c1ccc2c(c1)CCN(CCSc1ccnc(CSc3nc4ccccc4[nH]3)c1)C2	125 to 127
CC(=O)OCCN1CCN(C)c2cc(Nc3ncc(Cl)c(N[C@@H]4CCCC[C@H]4NS(C)(=O)=O)n3)ccc2C1	110 to 142
O=C(O)c1cn(-c2cc(O)c(F)cc2[N+](=O)[O-])c2c(Cl)c(F)c(F)cc2c1=O	248 to 255
O=c1c2c(Cc3ccc(C(F)(F)F)cc3)n[nH]c2c2cccnc2n1-c1ccccc1	216 to 219
Fc1ccc2c(c1)CC(n1cc[nH]c1=S)CC2 (stereo unspecified)	215 to 217
CC(C)(C)OC(=O)NC1CSCCNC1=O (stereo unspecified)	200 to 201
CCOC(=O)c1cn(Cc2ccc(-c3ccccc3-c3nnnn3C(c3ccccc3)(c3ccccc3)c3ccccc3)cc2)c2sc(CC)cc2c1=O	195 to 198
Nc1ccc(C(=O)N2CCC[C@@H]3CCCC[C@H]32)cc1[N+](=O)[O-] (relative stereo)	212 to 215
Fc1ccccc1-c1nncc2c(-c3ccccc3)c(OCc3ccccn3)nn12	182 to 183
COc1nc2cc(F)cc(CBr)c2nc1OC	122 to 125
O=C1C=Cc2ccc3ncccc3c2C1=O	215 to 216
CCCCCCCOc1ccc(-c2ncc(C#N)cn2)cc1	102
CCOCCOCCOc1cc(N2C(=O)C3=C(CCCC3)C2=O)c(F)cc1Cl	61
Cc1cc(-c2ccc(F)cc2)n(-c2ccc(S(C)(=O)=O)cc2)c1	151 to 154
O=C(CNS(=O)(=O)c1ccc(Nc2nccc(Nc3ccc(F)cc3)n2)cc1)NC1CCOCC1	253 to 254

SMILES	melting point [°C]
COc1ccc2c(c1)cc(C(=O)Nc1ccc3c(ccn3C)c1)n2Cc1cccc(C(F)(F)F)c1	176 to 177
CN(C)C(=O)n1nc(C(C)(C)C)cc1S(C)(=O)=O	126 to 128
CC(C)(C)C(=O)N[C@H]1CC[C@H](CCN2CCN(c3nccc4c3OCC4)CC2)CC1	194
N#Cc1cc([N+](=O)[O-])ccc1Oc1c(F)c(F)cc(F)c1F	152 to 154
c1ccc(-c2ccc(Nc3nc4ccccc4o3)cc2)cc1	213 to 214
C[Si](C)(C)C#Cc1c[nH]c(=O)[nH]c1=O	187 to 189
N#CC1=C(C#N)Sc2nc3cc([N+](=O)[O-])c(Cl)cc3nc2S1	228 to 230
O=C(CCCCl)c1ccc2c(c1)Cc1cc(C(=O)CCCCl)ccc1S2	115 to 116
CC(C)c1nc(COC(=O)N[C@H](C(=O)N[C@@H](Cc2ccccc2)[C@@H](O)C[C@H](Cc2ccccc2)NC(=O)OCc2cncs2)C(C)C)cs1	172 to 174
COc1cc(CCN2CCN(C)CC2)cc(OC)c1-c1ccc(C[C@H](NC(=O)c2c(Cl)cccc2Cl)C(=O)O)cc1	179
CN(CCSc1ccc2ncc([N+](=O)[O-])n2n1)c1ccnc(CO)c1Cl	189 to 191
COc1nc2cc([N+](=O)[O-])c(C)c(C(=O)N3CCNCC3)c2nc1OC	150 to 152
Cc1cc(C)c(-c2ccnc(Nc3ccc(F)cc3)n2)[nH]1	168 to 172
O=C(Nc1cccc(Cl)c1)c1ccccc1CN1C(=O)C2(COc3cc4c(cc32)CCO4)c2ccccc21 (stereo unspecified)	> 230
COC(=O)c1ccc(N(C(=O)c2ccccc2-c2ccccc2)C(=O)c2ccccc2-c2ccccc2)nc1	180 to 188
Brc1ccc(-c2c(-c3ccccc3)c(-c3ccccc3)c(-c3ccccc3)c(-c3ccccc3)c2-c2ccc(Br)cc2)cc1	245
Cc1nc(N2CCOCC2)ccc1N1CCCn2c1nc1c(Cl)ccc(C(OC(F)F)C(F)(F)F)c12 (stereo unspecified)	191 to 193
O=C1CN=C(C2CCCCC2)c2cc(Cl)ccc2N1	210
COc1ccc(-c2cc(-c3ccc(-c4c(Cc5ccccc5)oc5ccccc45)cc3)ccc2OC(Cc2ccccc2)C(=O)O)cc1 (stereo unspecified)	73 to 75
CCc1ccc(C2CCC(c3ccc(O)cc3)(c3ccc(O)cc3)CC2)cc1	187 to 188
COCc1nc(-c2cc(C(C)(C)C)c(O)c(C(C)(C)C)c2)cs1	116 to 117
O=C(O)Cc1ccc(CCl)cc1	147 to 149

Further lines, results first:

melting point [°C]	SMILES
118 to 120	Cc1[nH]cnc1CCNC(=NCCCOc1cccc(CN2CCCCC2)c1)NC(=O)c1ccccc1
152 to 154	CCOCc1nc2c(N)nc3cc(-c4cccnc4)ccc3c2n1CC1CCCCN1S(C)(=O)=O (stereo unspecified)
186	CN(C)C=Nc1c(I)c(=O)n(Cc2ccccc2)c(=O)n1C
121 to 123	NS(=O)(=O)c1ccccc1S(=O)(=O)N1CCC1
103 to 106	CCOC(=O)c1ccsc1NC(=O)NCCN1CCN(c2ccc(OC)cc2)CC1
84 to 86	CCCCOC(=O)c1cn2ccnc2s1
70	CCCC(=O)c1cc(-c2ccccc2)ns1
170	COc1ccccc1C1(NCCC(=O)OC(C)(C)C)C(=O)Nc2ccc(Cl)cc21 (stereo unspecified)
61.4 to 63.1	CCOC(=O)c1cnc(Cl)cc1NC
187 to 189	Cc1ccn2nc(S(=O)(=O)N(C(=O)c3ccccc3)c3c(Cl)cccc3Cl)nc2n1
97 to 99	CCOC(=NC(=O)C1CC1)N1Cc2ccccc2-c2ccccc2C1
159 to 164	CC(=O)CC(=O)Nc1ccc(-c2ncn(-c3ccc(OC(F)(F)F)cc3)n2)cc1
110 to 111	Nc1ncc(Cc2ccccc2)cc1Br
46 to 49	CCCCCCOc1cccc2ncccc12
153 to 155	Cc1cccc(-c2[nH]c(C(C)C)nc2-c2cccc(-c3ccccc3F)c2)n1
91 to 92	O=C1CC(c2ccc(Cl)cc2Cl)Oc2ccccc21 (stereo unspecified)
130 to 132	CC(=O)OC(C)(C)C(=O)Nc1ccc(Sc2ccc(N)cc2)cc1Cl
73 to 75	CCOC(=O)[C@H](CCc1ccccc1)N(C(=O)OCC(Cl)(Cl)Cl)[C@@H](C)C(=O)O
68 to 69	Cc1oc(-c2ccccc2)nc1COc1ccc(CON)cc1
150 to 152	O=C(O)c1nc(C2CC2)nc(NCc2ccco2)c1Cl
130 to 139	CSc1ccc(-c2cnn(CC(F)(F)F)c(=O)c2Cl)cc1
92	N#CN=C(NCCC(=O)O)Nc1ccc2nonc2c1
94 to 95	CC(C)(C)OC(=O)CCC1CC(O)C(=O)N1 (stereo unspecified)
127 to 130	CC1CCC(C)N1CCNc1ccnc2cc(Cl)ccc12 (stereo unspecified)
110 to 113	CCCCCCCCSc1nc2ccccc2[nH]1
119 to 120	CC(C)(C)OC(=O)N[C@@H](COS(C)(=O)=O)Cc1ccccc1

melting point [°C]	SMILES
171 to 174	COc1c(Cl)ccc(-c2cc(N)c(Cl)c(C(=O)NOCc3ccc(C)cc3)n2)c1F
106 to 108	CC(C)(C)C(=O)Oc1ccccc1C(=O)c1ccccc1OC(=O)C(C)(C)C
171 to 172	CCOC(=O)/C(=N\OCc1c(Cl)cccc1Cl)c1csc(N)n1
153 to 155	Cc1c(C#N)sc2nc(CCc3ccccc3)nc(NC3CCC3)c12
172 to 174	CCCN=C(N)Nc1ccnc(CCCCc2c[nH]cn2)n1
230 to 232	O=C(O)CCNCCn1nc(-c2c(-c3ccccc3)nn3ccccc23)ccc1=O
165	Cc1nnsc1C(=O)NS(=O)(=O)c1ccc(Cl)cc1
179	O=C(O)COc1ccc(S(=O)(=O)c2cccs2)c(Cl)c1Cl
276	CC(=O)Nc1nc(CCc2ccc(NC(NC(=O)OC(C)(C)C)NC(=O)OC(C)(C)C)cc2)cs1
140	CNC(=O)c1ccccc1CC(O)(CCN(C)C)c1ccccc1 (stereo unspecified)
195 to 197	Cc1ccccc1-c1cc2cnc(N)nc2nc1NC(=O)NC(C)(C)C
276 to 281	O=C1Nc2ccccc2C(c2ccccc2)N1C1CCN(CC2CC2)CC1 (stereo unspecified)
168 to 170	Cc1ccccc1Cn1cc(-c2cn(C3CC(O)C(CO)O3)c(=O)[nH]c2=O)nn1 (stereo unspecified)
175	CC(C#Cc1ccc(C=Cc2ccccn2)o1)N(O)C(N)=O (stereo unspecified)
89.5 to 91.5	COCOc1cc(CCCOc2nn(Cc3ccccc3)cc2CC(=O)O)n(Cc2ccc(Cl)cc2Cl)n1
150	CCOC(=O)C1=C(C)NC(C)=C(C(=O)OC)C1c1cccc(C#N)c1 (stereo unspecified)
168 to 169	CC(C)C(=C=O)NC(=O)Nc1ccc([N+](=O)[O-])cc1O
66 to 68	CN(C)c1nc2n(n1)CCc1ccccc1-2
183 to 184	O=C(NC(=O)c1c(F)cccc1F)Nc1ccc2c(c1)C(F)(F)C(F)(F)O2
201 to 203	CCOC(=O)C1C=Nc2c(c(F)cc3cc(C(=O)N(C)Cc4ccccc4)cnc23)C1=O (stereo unspecified)
208 to 210	Cc1c(-n2cnc3c(-c4ccccc4)cc(F)cc32)nc2ccc(F)cc2c1C(=O)O
230 to 232	Clc1ccc(-c2c(Cc3nnn[nH]3)cnn2-c2ccccc2)cc1
193 to 194	Cc1c(Cc2ccc(C(C)C)cc2)c2c(c(C)c1NC(=O)CC(C)(C)C)C(=O)C(C)(C)O2
154 to 155	CCOC1=C(C(=O)O)CN(C2CCCCC2)C1=O
106	CCOC(=O)C(Cl)=NNc1ccccc1Br
